In test [1] the target is Acetylcholinesterase (Homo sapiens, UniProt P22303). As to the kind of experiment: In vitro inhibitory concentration against acetylcholinesterase of human erythrocytes.
Test [2] has as its target Cholinesterase (Homo sapiens, UniProt P06276).
Description: In vitro inhibitory concentration against BChE of human serum
For test [3], the target named is T1, Acetylcholinesterase (Bos taurus, UniProt P23795).
T1 sequence (P23795 whole entry): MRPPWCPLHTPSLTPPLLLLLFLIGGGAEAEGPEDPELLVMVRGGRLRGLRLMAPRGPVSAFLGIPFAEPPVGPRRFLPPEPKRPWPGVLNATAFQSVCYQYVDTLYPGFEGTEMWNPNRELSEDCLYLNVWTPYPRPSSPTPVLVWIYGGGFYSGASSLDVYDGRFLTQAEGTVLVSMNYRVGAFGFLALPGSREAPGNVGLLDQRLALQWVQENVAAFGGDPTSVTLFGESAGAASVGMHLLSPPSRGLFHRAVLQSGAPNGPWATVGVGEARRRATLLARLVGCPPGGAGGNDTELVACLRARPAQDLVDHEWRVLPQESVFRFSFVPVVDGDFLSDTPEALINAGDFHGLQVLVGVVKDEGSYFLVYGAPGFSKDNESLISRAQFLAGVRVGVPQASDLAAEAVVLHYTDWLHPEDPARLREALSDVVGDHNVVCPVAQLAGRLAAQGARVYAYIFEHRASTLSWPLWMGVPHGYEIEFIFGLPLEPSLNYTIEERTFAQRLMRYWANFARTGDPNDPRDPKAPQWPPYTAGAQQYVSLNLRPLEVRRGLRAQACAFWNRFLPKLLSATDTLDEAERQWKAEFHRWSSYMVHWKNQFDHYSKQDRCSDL
Description: In vitro inhibitory concentration against bovine acetylcholinesterase enzyme

SMILES strings stand for the structures.

The IC50 is the concentration at which inhibition is half-maximal.

Chain of Acetylcholinesterase (Homo sapiens, UniProt P22303) (P22303 whole entry): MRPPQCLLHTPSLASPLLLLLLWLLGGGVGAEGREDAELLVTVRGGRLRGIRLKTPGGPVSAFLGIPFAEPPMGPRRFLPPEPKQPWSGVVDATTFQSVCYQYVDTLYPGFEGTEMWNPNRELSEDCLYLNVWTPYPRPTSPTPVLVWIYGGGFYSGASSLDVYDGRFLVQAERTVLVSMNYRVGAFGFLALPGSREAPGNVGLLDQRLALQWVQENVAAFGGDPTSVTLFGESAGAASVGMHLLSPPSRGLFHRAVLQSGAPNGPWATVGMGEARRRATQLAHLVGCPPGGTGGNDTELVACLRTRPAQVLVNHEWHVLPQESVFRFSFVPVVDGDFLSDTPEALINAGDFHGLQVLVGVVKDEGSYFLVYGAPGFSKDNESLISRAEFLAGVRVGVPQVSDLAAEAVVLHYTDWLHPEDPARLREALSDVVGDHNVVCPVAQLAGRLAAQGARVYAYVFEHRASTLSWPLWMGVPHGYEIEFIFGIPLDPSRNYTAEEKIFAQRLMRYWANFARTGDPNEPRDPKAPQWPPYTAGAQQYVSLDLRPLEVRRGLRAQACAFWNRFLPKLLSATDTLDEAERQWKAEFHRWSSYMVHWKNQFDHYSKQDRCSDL
Chain of Cholinesterase (P06276 whole entry): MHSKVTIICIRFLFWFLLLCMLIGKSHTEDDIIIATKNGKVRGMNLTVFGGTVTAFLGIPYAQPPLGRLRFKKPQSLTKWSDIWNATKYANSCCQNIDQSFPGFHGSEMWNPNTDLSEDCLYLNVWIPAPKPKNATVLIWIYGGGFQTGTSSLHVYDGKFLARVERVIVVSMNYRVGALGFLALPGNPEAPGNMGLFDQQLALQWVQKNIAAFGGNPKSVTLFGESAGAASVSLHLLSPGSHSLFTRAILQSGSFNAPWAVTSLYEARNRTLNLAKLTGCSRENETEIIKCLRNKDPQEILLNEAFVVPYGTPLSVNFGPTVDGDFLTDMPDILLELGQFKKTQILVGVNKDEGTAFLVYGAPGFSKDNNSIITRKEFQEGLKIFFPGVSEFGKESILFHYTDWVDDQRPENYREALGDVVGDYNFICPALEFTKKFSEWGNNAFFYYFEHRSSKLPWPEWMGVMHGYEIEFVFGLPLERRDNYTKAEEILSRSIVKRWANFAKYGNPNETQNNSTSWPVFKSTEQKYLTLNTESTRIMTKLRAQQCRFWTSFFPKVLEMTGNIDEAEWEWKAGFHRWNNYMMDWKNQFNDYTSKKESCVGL

In test [1], `CCC1=CC2Cc3nc4ccccc4c(N)c3C(C1)C2` (racemic) gave an IC50 of 37.8 nM.

Consider `CC1=CC2CC(C1)Cc1nc3ccccc3c(N)c12` (racemic), for which the IC50 came out at 148 nM in test [2] and 436 nM in test [1].

Compound `CC1=CC2Cc3nc4ccccc4c(N)c3C(C1)C2` (racemic) had an IC50 in test [1] of 51.6 nM.

As for `CCC1=CC2CC(C1)Cc1nc3ccccc3c(N)c12` (racemic), the results for the IC50 in test [3], in test [2] and in test [1] were 165 nM, 63 nM and 76.9 nM, respectively.

For the origin of these results see ChEMBL document CHEMBL1134330, “Synthesis, in vitro pharmacology, and molecular modeling of syn-huprines as acetylcholinesterase inhibitors” (J Med Chem, 2001).
